Experimental data from publication PMC7985170, “Marine Peptide-N6NH2 and Its Derivative-GUON6NH2 Have Potent Antimicrobial Activity Against Intracellular Edwardsiella tarda in vitro and in vivo” (Frontiers in Microbiology, 2021).
≈ marks a conversion by molar mass, not a printed value. Where a SMILES comes first, the peptide text is derived from it. Bridges are numbered along the chain shown (N, C = ends). The star is where a group is joined. Orn(α-tetramethylguanidino) = CN(C)C(=N[C@@H](CCCN)C(=O)*)N(C)C

Assays:
murine erythrocytes = format: cell-based, mouse
Procedure: The hemolysis of peptides was evaluated by determining the amount of hemoglobin that was released from fresh mouse erythrocytes ([Flamm et al., 2019]). The blood cells were washed three times with 10 mM PBS (pH 7.4) and centrifuged for 10 min (1,500 rpm). Erythrocyte solution (8%, v/v) was mixed with peptide solutions (1:1) and incubated for 1 h at 37°C. The mixture was then centrifuged for 5 min (1,500 rpm), and the absorbance of supernatants was measured at 540 nm. Values of 0 and 100% hemolysis were determined in PBS and 0.1% triton X-100, respectively. The hemolysis of peptides was calculated using the following formula: Hemolysis (%) = [(Abs treated sample – Abs negative control)/(Abs positive control – Abs negative control)] × 100.

S. hyicus 15095 = format: cell-based, Staphylococcus hyicus
Procedure: (§1) The antimicrobial activity of peptides was determined by the microbroth dilution method ([Zhang et al., 2014]). The bacterial strains were incubated in Mueller-Hinton (MH) medium at 28°C or 37°C overnight. Bacteria (1 × 10^5 CFU/mL) were added into 96-well plates, followed by the addition of serial dilutions of peptides (from 0.0625 to 128 μg/mL). The plates were incubated at 37°C for 18–24 h. The minimal inhibitory concentration (MIC) value was determined as the lowest peptide concentration at which no bacterial growth was observed.

E. tarda [1] = assay: Mouse peritonitis model, survival; format: in vivo; details: 1 μmoL/kg i.p. at 1 h postinfection, ICR mice, 5 days
Procedure: To establish a peritonitis mouse model, six-week-old female ICR mice (five mice/group) were intraperitoneally injected with E. tarda (1 × 10^9 CFU/mL, 0.5 mL). The infected mice were followed by the intraperitoneal injection of N6NH2, GUON6NH2 or norfloxacin (1 μmol/kg of body weight, 0.2 mL) at 1 h postinfection, respectively. Mice injected with only bacteria or PBS were used as negative or blank controls. The survival of mice was recorded daily for 5 days.

S. typhimurium ATCC14028 = format: cell-based, Salmonella typhimurium
Procedure: as §1

S. aureus ATCC25923 = format: cell-based, Staphylococcus aureus
Procedure: as §1

S. aureus ATCC546 = format: cell-based, Staphylococcus aureus
Procedure: as §1

[2] = tested on: inner membrane of E. tarda; assay: Inner membrane penetration, PI staining by flow cytometry; format: cell-based, Edwardsiella tarda; details: 1× MIC, 5–30 min at 37°C, 1 × 10^8 CFU/mL
Procedure: Mid-log phase E. tarda cells (1 × 10^8 CFU/mL) were incubated with or without 1× MIC peptides solutions at 37°C for 5, 15, and 30 min, respectively. After washing twice with PBS, bacterial cells were then incubated with 50 μg/mL propidium iodide (PI) for 15 min and analyzed using a FACS Calibur Flow Cytometer (BD, United States) ([Stearns-Kurosawa et al., 2011]).

E. tarda [3] = assay: Post-antibiotic effect (PAE); format: cell-based, Edwardsiella tarda; details: 4× MIC
RAW 264.7 macrophages = format: cell-based, mouse
Procedure: To quantify peptide uptake, RAW 264.7 macrophages were grown in 12-well plates (2.5 × 10^5 cells/mL, 750 μL/well) for 24 h. Then, the cells were treated with FITC-N6NH2 and FITC-GUON6NH2 (1, 5, 10, 25, and 50× MIC) for 18 h and washed with PBS. To avoid the influence of membrane-bound FITC-labeled peptides, the cells were incubated with 0.04% trypan blue in PBS for 15 min and the fluorescence intensity was analyzed using a FACS Calibur Flow Cytometer (BD, United States) ([Duchardt et al., 2009]).

[4] = tested on: Gram-negative and Gram-positive bacteria (ALL); assay: Geometric mean of MICs and therapeutic index; format: cell-based; details: for GM ALL: geometric mean (GM) of MICs, all strains; for TI ALL: therapeutic index (TI), cell selectivity
Procedure: as §1
(§2) The geometric mean (GM) of MICs of peptides against Gram-negative and Gram-positive bacteria was calculated, and the result was shown in Table 3. […] For Gram-negative bacteria, the TI value of GUON6NH2 (53.33) was very close to N6NH2 (58.18), while for positive bacteria, the TI value of GUON6NH2 (12.8) was slightly higher than that of N6NH2 (12.31), indicating their huge therapeutic potential. For Gram-positive bacteria, DN6NH2 had the highest TI value and the best therapeutic potential.

Gram-positive bacteria = assay: Geometric mean of MICs and therapeutic index; format: cell-based; details: for GM Gram-positive bacteria: geometric mean (GM) of MICs against Gram-positive bacteria; for TI Gram-positive bacteria: therapeutic index (TI), cell selectivity
Procedure: as §1, §2

Gram-negative bacteria = assay: Geometric mean of MICs and therapeutic index; format: cell-based; details: for GM Gram-negative bacteria: geometric mean (GM) of MICs against Gram-negative bacteria; for TI Gram-negative bacteria: therapeutic index (TI), cell selectivity
Procedure: as §1, §2

E. tarda [5] = assay: Mouse peritonitis model, bacterial counts in peritoneal fluid; format: in vivo; details: 1 μmol/kg i.p., peritoneal fluid cells 24 h after treatment
Procedure: The mice were intraperitoneally infected with E. tarda (1 × 10^9 CFU/mL, 0.5 mL) and then injected with N6NH2 and GUON6NH2 (1 μmol/kg) or PBS (the blank control) in the same way at 1 h after infection. The mice were then killed at 24 h after treatment, and peritoneal fluids were obtained by washing with 5 mL of ice-cold PBS. The total number of E. tarda in the fluids was determined before any further procedures. For intracellular bacteria quantification, the other fraction was centrifuged for 5 min at 4°C (1,000 rpm). The cells were collected, treated with 1,000 μg/mL gentamicin for 30 min at 37°C to kill extracellular bacteria, and washed with ice-cold PBS twice to remove extracellular gentamicin. Subsequently, the cells were lysed and the bacteria were counted as described above for the in vitro experiment ([Kim et al., 2011]).

SMILES	MHC (murine erythrocytes) [µg/mL]	cytotoxicity and hemolysis (murine erythrocytes; red cells of mouse, 1 h) [%]	MIC (S. hyicus 15095) [µg/mL]	survival rate of mice (E. tarda [1]) [%]	MIC (S. typhimurium ATCC14028) [µg/mL]	MIC (S. aureus ATCC25923) [µg/mL]	MIC (S. aureus ATCC546) [µg/mL]	penetration rate (PI-stained cells) [2]	PAE, times longer than that of norfloxacin (E. tarda [3]) [times]	percentages of florescent cells (RAW 264.7 macrophages)	GM ALL [4] [µg/mL]	TI ALL [4]	GM Gram-positive bacteria (Gram-positive bacteria) [µg/mL]	TI Gram-positive bacteria (Gram-positive bacteria)	GM Gram-negative bacteria (Gram-negative bacteria) [µg/mL]	TI Gram-negative bacteria (Gram-negative bacteria)	reduction of intracellular bacteria (E. tarda [5]) [Log10 CFU]
CC(C)[C@@H]1NC(=O)CNC(=O)[C@H](CC(N)=O)NC(=O)[C@H](CCCNC(=N)N)NC(=O)[C@H](Cc2ccc(O)cc2)NC(=O)[C@H](C(C)C)NC(=O)[C@@H](NC(=O)[C@@H](NC(=O)[C@H](CC(N)=O)NC(=O)[C@H](Cc2c[nH]c3ccccc23)NC(=O)[C@H](C)NC(=O)[C@H](Cc2ccccc2)NC(=O)[C@H](CCCN)N=C(N(C)C)N(C)C)C(C)C)CSSC[C@@H](C(=O)N[C@@H](Cc2c[nH]cn2)C(=O)N[C@@H](CCCNC(=N)N)C(=O)N[C@@H](CCCNC(=N)N)C(=O)N[C@@H](C)C(=O)N[C@@H](CC(N)=O)C(N)=O)NC(=O)[C@H](C(C)C)NC(=O)[C@H](CCCNC(=N)N)NC1=O [GUON6NH2] ({Orn(α-tetramethylguanidino)}-FAWNVCVYRNGVRVCHRRAN-NH2; disulfide 6-15)	>128	< 1	4 (≈ 1.52 µM)	60	4 (≈ 1.52 µM)	32 (≈ 12.2 µM)	16 (≈ 6.08 µM)	0.78–2.84%	1.27	16.1–86.5%	9.87	25.94	20	12.8	4.8	53.33	1.97
CC(C)[C@@H]1NC(=O)CNC(=O)[C@H](CC(N)=O)NC(=O)[C@H](CCCNC(=N)N)NC(=O)[C@H](Cc2ccc(O)cc2)NC(=O)[C@H](C(C)C)NC(=O)[C@@H](NC(=O)[C@@H](NC(=O)[C@H](CC(N)=O)NC(=O)[C@H](Cc2c[nH]c3ccccc23)NC(=O)[C@H](C)NC(=O)[C@H](Cc2ccccc2)NC(=O)CN)C(C)C)CSSC[C@@H](C(=O)N[C@@H](Cc2cnc[nH]2)C(=O)N[C@@H](CCCNC(=N)N)C(=O)N[C@@H](CCCNC(=N)N)C(=O)N[C@@H](C)C(=O)N[C@@H](CC(N)=O)C(N)=O)NC(=O)[C@H](C(C)C)NC(=O)[C@H](CCCNC(=N)N)NC1=O [N6NH2]	>128		8 (≈ 3.23 µM)	80	4 (≈ 1.62 µM)	32 (≈ 12.9 µM)	16 (≈ 6.46 µM)	0.99–1.71%		27.6–79.8%	9.87	25.94	20.8	12.31	4.4	58.18	1.54
